The values below are quoted from earlier work in article PMC11887077 (BMC Cancer, 2025).

This data set concerns NRP1. Particulars: in vitro.

For CLKADK [CK2], the “affinity with NRP1 compared with CK3” value is reported as “higher affinity”.
